Experimental findings from patent US20200330420A1, “LONG CHAIN FATTY ACID FORMULATIONS AND THEIR USE IN INHIBITING SALMONELLA INFECTION” (priority 2019, published 2020) are described below.

SMILES strings stand for the structures.

The test system of assay [1] is hilA expression. Nature of the assay: Luciferase assay, hilA::luxCDABE reporter fusion. Format: cell-based. The source says: (§1) Strains. Salmonella enterica subsp. enterica serovar Typhimurium 14028s, and mutants thereof, were used throughout. Deletion mutants were constructed as previously described (K. A. Datsenko et al., PNAS USA, 97(12), 6640-6645, 2000). Briefly, PCR fragments of kanamycin and chloramphenicol resistance genes containing 40 base pair homology extensions flanking the gene of interest were generated using pKD4 and pKD3 plasmids. The PCR fragments were transformed into a strain expressing λ Red recombinase. Loss of the gene of interest was confirmed using PCR. Unmarked mutants were generated using a helper plasmid pCP20 carrying a gene encoding the FLP recombinase. Marked deletions and constructs were transferred using bacteriophage P22 transduction (N. L. Sternberg et al., Methods Enzymol., 204, 18-43, 1991).
Luciferase assays. Strains carrying luxCDABE reporter fusions were grown overnight in LB with the necessary antibiotics. Overnight cultures were diluted 100-fold into M9 minimal medium with glucose, antibiotics and 1 mM nonanoic acid (added to repress SPI invasion gene expression to eliminate background luminescence), and grown overnight. The cultures were washed three times with PBS. Bacteria were inoculated at a starting OD600 of 0.02 into 150 μL of LB containing 100 mM MOPS pH 6.7, the necessary antibiotics and compounds to be tested, in a sealed black-walled 96 well plate. Luminescence was measured every 30 minutes for 24 hours using a Biotek Synergy™ H1 microplate reader.

Assay [2] addresses T1, HilD (Salmonella typhimurium, UniProt P0CL08). Nature of the assay: HilD half-life assay (western blot of HilD-3xFLAG). The format is cell-based. The arrangement: expressed in transfected cells; host or cells: Salmonella Typhimurium 14028s derivative carrying PtetRA-hilD-3xFLAG, with Lon present or absent. The following applies: Lon mutant (absence of Lon); 20 μM; FIG. 5A.
For assay [3], the target named is HilC (Salmonella typhimurium, UniProt P0CL09). As to the kind of experiment: Electrophoretic mobility shift assay, HilC binding to hilA promoter DNA. The following applies: FIG. 7. On the procedure:
(§2) Electrophoretic mobility shift assays (EMSAs). EMSAs were performed as previously described (Y. A. Golubeva et al., M Bio, 7(1), 2016). Briefly, 10 nM of hilA promoter DNA was mixed with 150 μM HilD, HilC or RtsA in a binding buffer containing 20 mM KCl, 1% glycerol, 1 mM DTT, 0.04 mM EDTA, 0.05% Tergitol™ NP-40 and 20 mM HEPES, pH 7.3. cis-2-hexadecenoic acid was tested at concentrations of […] Binding was performed at room temperature for 20 minutes. Samples were separated on 6% Novex® TBE DNA retardation gels, and DNA was stained using SYBR® green (Invitrogen).
(In EMSA bound probe runs differently from free probe, usually more slowly.)

The target in assay [4] is T1, HilD. As to the kind of experiment: Electrophoretic mobility shift assay, HilD binding to hilA promoter DNA. On the set-up: 6xHis-NusA (followed by an HRV 3C protease site) (N, cleaved yes); made in house; host or cells: E. coli BL21(DE3), vector pCAV4. The following applies: FIG. 7.
For assay [5], the system named is sopB expression. As to the kind of experiment: Luciferase assay, sopB::luxCDABE reporter fusion. The format is cell-based. The following applies: ΔhilD mutant, rtsA under tetracycline-inducible promoter; 20 μM; FIG. 4A.
From the text: as §1
Luciferase assays. Strains carrying luxCDABE reporter fusions were grown overnight in LB with the necessary antibiotics. Overnight cultures were diluted 100-fold into M9 minimal medium with glucose, antibiotics and 1 mM nonanoic acid (added to repress SPI invasion gene expression to eliminate background luminescence), and grown overnight. The cultures were washed three times with PBS. […] Luminescence was measured every 30 minutes for 24 hours using a Biotek Synergy™ H1 microplate reader.

Assay [6] has as its system RtsA. Nature of the assay: Electrophoretic mobility shift assay, RtsA binding to hilA promoter DNA. The following applies: FIG. 7. The arrangement: species or system Salmonella. On the procedure: as §2
Where [7] appears, read: chain length comparison, FIG. 1E.
Setting [8] is: hilD only: ΔrtsA ΔhilC, hilD under tetracycline-inducible promoter, 20 μM, FIG. 4C.
Where [9] appears, read: 10, 25, 50 and 75 μM fatty acid.

T1 sequence (P0CL08 whole entry): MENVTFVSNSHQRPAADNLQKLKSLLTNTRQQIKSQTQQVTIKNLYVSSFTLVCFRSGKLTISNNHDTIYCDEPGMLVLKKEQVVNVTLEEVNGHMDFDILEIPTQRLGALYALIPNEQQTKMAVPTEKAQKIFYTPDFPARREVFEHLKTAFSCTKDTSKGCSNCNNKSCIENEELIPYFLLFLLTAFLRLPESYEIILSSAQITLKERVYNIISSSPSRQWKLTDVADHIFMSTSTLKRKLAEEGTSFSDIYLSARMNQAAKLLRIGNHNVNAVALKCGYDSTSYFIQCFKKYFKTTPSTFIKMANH
Sequence of HilC (P0CL09 whole entry): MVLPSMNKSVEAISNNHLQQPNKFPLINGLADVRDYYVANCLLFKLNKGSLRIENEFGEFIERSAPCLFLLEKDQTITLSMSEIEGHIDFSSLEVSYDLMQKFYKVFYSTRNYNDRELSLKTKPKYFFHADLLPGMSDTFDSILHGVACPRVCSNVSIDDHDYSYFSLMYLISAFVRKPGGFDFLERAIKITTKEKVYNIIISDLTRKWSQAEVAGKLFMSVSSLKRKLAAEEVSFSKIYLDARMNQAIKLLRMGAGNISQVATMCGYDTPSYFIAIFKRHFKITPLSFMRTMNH

For `CCCCCCCCCCCCC/C=C/C(=O)O` [trans-2-hexadecenoic acid, reference compound], the “less potent in repressing hilA than the cis-isomer” value in assay [1] (FIG. 1A, 20 μM fatty acids per legend) is listed as 31 fold.
Regarding `CCCCCCCCC/C=C\C(=O)O` [cis-2-dodecenoic acid], the “reduction of hilA expression” value in assay [1] (setting [7]) worked out at 3 fold.
For the molecule `CCCCCCCCCCCCCCCCC/C=C\C(=O)OC` [cis-2-eicosenoic acid methyl ester, reference compound], the “repression of hilA expression” value in assay [1] (40 μM methyl ester, FIG. 2B) was “not to significantly repress hilA expression”.
Take `CCCCCCCCCCCCCCCCC/C=C\C(=O)O` [cis-2-eicosenoic acid]: in assay [1] (setting [7]), the “reduction of hilA expression” value is reported as 10 fold. The “repression of hilA expression” value in assay [1] (setting [8]) was 3 fold.
As to `CCCCCCCCCCCCC/C=C\C(=O)OC` [cis-2-hexadecenoic acid methyl ester, reference compound], the “repression of hilA expression” value in assay [1] (20 μM methyl ester, FIG. 2A) was “not to significantly repress hilA expression”.
As to `CCCCCCC/C=C\C(=O)O` [cis-2-decenoic acid], the “reduction of hilA expression” value in assay [1] (setting [7]) is 28%.
On to `CCCCCCCC/C=C\CCCCCCCC(=O)O` [oleic acid, cis-9-octadecenoic acid, reference compound], for which the “repression of hilA expression” value in assay [1] (setting [8]) amounted to 1.2 fold.
On to `CCCCCCCCCCCCC/C=C\C(=O)O` [c2-HDA, Cis-2-hexadecenoic acid], for which the “effect on HilD stability” value in assay [2] is reported as “no effect on its stability”. The “binding of HilC to the hilA promoter” value is “prevented binding to the hilA promoter” in assay [3] (100 μM fatty acid) and “partially” in assay [3] (setting [9]). Further, the “binding of HilD to the hilA promoter” value in assay [4] (20 μM fatty acid, 10 nM hilA promoter DNA) is “completely inhibited from binding hilA promoter DNA”; in assay [4] (1, 2, 5 and 10 μM fatty acid) it was “partially”. The “repression of sopB expression” value in assay [5] was determined as 11 fold. For the same molecule, the “binding of RtsA to the hilA promoter” value in assay [6] (100 μM fatty acid) is “prevented binding to the hilA promoter”; in assay [6] (setting [9]) it was “partially”. Further, the “repression of hilA expression” value is 80 fold in assay [1] (1 μM, FIG. 1B); 78 fold in assay [1] (setting [8]); “continued to repress hilA expression” in assay [1] (Δlon mutation, 20 μM, FIG. 5B). The “reduction of hilA expression” value in assay [1] (setting [7]) is given as 159 fold; in assay [1] (hilC only (tetracycline-inducible), null hilD and rtsA, FIG. 6B), 20 fold; in assay [1] (rtsA only (tetracycline-inducible), null hilD and hilC, FIG. 6A), 13 fold. In addition, the “repression of hilA in a hilD mutant” value in assay [1] (hilD mutant, FIG. 4A) is “modest repression”.
